These results are taken from the Bradley open melting point set (2014).

The structures appear in SMILES notation. Several values for one entry are separate records, joined by “and”; a condition that tells them apart may be missing. Equal entries are not always repeated.

Compound `CC(C)(C)OC(=O)NCC(=O)O` [boc-glycine] came in with a melting point of 88.5 °C.
The figure for `CN(C)CCCN1c2ccccc2Sc2ccc(Cl)cc21` [chlorpromazine] is 57 °C; for `Cc1cc2ccccc2[n+]([O-])c1` [3-methylquinoline n-oxide] it is 89 °C.
With `CS(C)=O` [Dimethyl sulfoxide] the figure was 18.4 °C and 18.5 °C.
On to `c1ccc(C(c2ccccc2)c2ccccc2)cc1` [1,1',1''-Methanetriyltribenzene], for which the melting point turned out to be 94 °C.
`Cc1cccc(I)c1` [3-iodotoluene] had a melting point of -27 °C.
`Cc1ccccc1CP(=O)(O)O` [2-methylbenzylphosphonic acid] returned a melting point of 186 °C.
In turn, `CCC` [propane] had a melting point of -188 °C.
As for `COc1ccc([N+](=O)[O-])cc1` [4-nitroanisole], the melting point stood at 52 °C.
Take `Nc1cccc(I)c1` [3-iodoaniline]: the melting point came out at 23 °C.
With `CC(=O)C(=O)O` [2-Oxopropanoic acid] the figure was 12 °C; with `CN(C)c1cccc(O)c1` [3-(Dimethylamino)phenol], 83 °C; with `NCCCCC(=O)O` [5-aminovaleric acid], 157 °C.
`CCCCCCCCCCCCCCCCCO` [1-heptadecanol] had a melting point of 58 °C.
Regarding `IC(I)I` [iodoform], the melting point worked out at 122 °C.
The compound `Cc1ccccc1NC=O` [2-methylformanilide] showed a melting point of 59 °C.
With `Nc1c(Br)cc(Br)cc1Br` [2,4,6-Tribromoaniline] the figure was 121 °C.
Compound `c1ccc2ccccc2c1` [Naphthalene] came in with a melting point of 77 °C.
`O=C(O)c1cc(B(O)O)ccc1F` [3-carboxy-4-fluorobenzeneboronic acid] gave a melting point of 218 °C.
In the case of `COc1cc(C=O)c([N+](=O)[O-])cc1OC` [6-nitroveratraldehyde], the melting point was 133 °C.
As for `C1CCSC1` [tetrahydrothiophene], the melting point is -96 °C.
In the case of `N#CC(=Cc1ccc(Cl)cc1)C(N)=O` [3-(4-chlorophenyl)-2-cyanoacrylamide], the melting point turned out to be 101 °C.
`CCCCCCCCO` [1-octanol] displayed a melting point of -15 °C.
As to `CSc1ccc(Br)cc1` [4-bromothioanisole], the melting point amounted to 39 °C.
`COc1ccc(O)cc1` [4-methoxyphenol] registered a melting point of 56 °C.
The compound `CSc1nc(Cl)cc(N2CCCCC2)n1` [4-Chloro-2-(methylsulfanyl)-6-(piperidin-1-yl)pyrimidine] gave a melting point of 83.8 °C.
With `ON=Cc1c(F)cccc1Cl` [2-chloro-6-fluorobenzaldoxime] the figure was 126 °C; with `CC(C)(O)CCc1ccccc1` [4-phenyl-2-methyl-2-butanol], 32 °C; with `CCCCCCC(O)CCCCCCCCCCC(=O)O` (stereo not drawn) [12-Hydroxyoctadecanoic acid], 80.5 °C.
With `CC(=O)c1sccc1N` [2-acetyl-3-aminothiophene], the melting point is 86 °C.
`CCOP(=S)(OCC)Oc1nc(Cl)c(Cl)cc1Cl` [O,O-Diethyl O-(3,5,6-trichloropyridin-2-yl) phosphorothioate] gave a melting point of 42.5 °C.
On to `O=C[C@H](O)[C@H](O)[C@H](O)CO` [D-Ribose], for which the melting point worked out at 82 °C.
For `CCCC1C(=O)N2C(N(C)C)=Nc3ccc(C)cc3N2C1=O` (stereo not drawn) [apazone], the melting point was determined as 228 °C.
As for `N#Cc1c(F)ccc([N+](=O)[O-])c1F` [2,6-difluoro-3-nitrobenzonitrile], the melting point came to 53 °C.
`O=[N+]([O-])c1cc[n+]([O-])c2ccccc12` [4-Nitroquinoline 1-oxide] registered a melting point of 154 °C.
Compound `CCCNC(N)=O` [N-propylurea] showed a melting point of 102 °C.
With `Oc1ccc(Cl)cc1Cl` [2,4-dichlorophenol], the melting point was 43 °C and 45 °C and 42.5 °C.
As to `CC(C)[C@H](N)C(=O)O` [L-valine], the melting point was 315 °C.
Turning to `CCCCCCCCCCCC(=O)O` [dodecanoic acid], the melting point came to 44 °C.
Compound `COc1cc(Cl)c(Cl)c(Cl)c1Cl` [1-methoxy-2,3,4,5-tetrachlorobenzene] gave a melting point of 88 °C.
In turn, `O=C(OC(=O)C(F)(F)F)C(F)(F)F` [Trifluoroacetic anhydride] showed a melting point of -63 °C.
In turn, `CCCCCCP(=O)(O)O` [N-hexylphosphonic acid] showed a melting point of 109 °C.
In the case of `c1ccc2c(c1)oc1ccccc12` [Dibenzofuran], the melting point was determined as 82 °C.
Regarding `CCn1c2ccccc2c2ccccc21` [9-Ethyl-9H-carbazole], the melting point was determined as 69 °C.
On to `C=CCC1([C@H](C)CCC)C(=O)NC(=O)NC1=O` [Secobarbital], for which the melting point amounted to 100 °C.
Compound `CC(=O)c1cccc(Br)c1` [3'-bromoacetophenone] displayed a melting point of 8 °C.
With `O[C@H](CS)[C@H](O)CS` (racemic) [1,4-dithio-dl-threitol] the figure was 42 °C; with `C#CC1(O)CCCCC1` [1-ethynylcyclohexanol], 32 °C.
In turn, `O=[N+]([O-])c1cccc(-c2ccccc2)c1` [3-nitrobiphenyl] had a melting point of 62 °C.
Compound `COC(=O)c1ccc(Cl)cc1` [methyl_4-chlorobenzoate] yielded a melting point of 44 °C.
The compound `NNS(=O)(=O)c1ccccc1` [benzenesulfonyl hydrazide] showed a melting point of 103 °C.
With `COC1=CC(=O)CC(C)C12Oc1c(Cl)c(OC)cc(OC)c1C2=O` (stereo not drawn) the figure was 219 °C.
Turning to `O=C1OC2(c3ccccc31)c1ccc(O)c(Br)c1Oc1c2ccc(O)c1Br` [4',5'-dibromofluorescein], the melting point was 272 °C.
With `O=C(O)c1ccccc1Cl` [2-Chlorobenzoic acid] the figure was 140 °C; with `CC(C)C(=O)c1ccccc1` [isobutyrophenone], 1 °C; with `CCOC(=O)c1ccc(O)cc1` [ethyl 4-hydroxybenzoate], 117 °C.
The figure for `COc1ccc(Nc2ccc(OC)cc2)cc1` [4,4'-dimethoxydiphenylamine] is 102 °C; for `Cc1ccc(B(O)O)c(C)c1` [2,4-dimethylbenzeneboronic acid] it is 206 °C.
Regarding `CSSC` [dimethyl disulfide], the melting point is -85 °C.
`O=C1C(=O)c2ccccc2-c2ccccc21` [Phenanthrene-9,10-dione] registered a melting point of 210 °C.
`O=[N+]([O-])c1ccc(Cl)cc1` [1-chloro-4-nitrobenzene]: the melting point amounted to 84 °C.
The compound `COC(=O)c1cccc(C(=O)OC)c1` [dimethyl isophthalate] came in with a melting point of 69 °C.
Regarding `N#CCCCl` [3-chloropropionitrile], the melting point is -50 °C.
`CCOC(C)=O` [Ethyl acetate]: the melting point was -84 °C.
`COc1ccc(C(C)(C)C)cc1C(=O)O` [5-tert-butyl-2-methoxybenzoic acid]: the melting point amounted to 75 °C.
Consider `O=Cc1ccccc1O` [salicylaldehyde], for which the melting point is -7 °C.
As for `FC(F)(F)c1ccc(Cl)cc1` [4-chlorobenzotrifluoride], the melting point is -36 °C.
With `O=C(/C=C/c1ccccc1)c1ccccc1` [trans-chalcone] the figure was 56 °C.

As usually defined, the melting point is the temperature of the solid-liquid transition.
